Consider 1 compound from patent publication US4444769A, “Antihypertensive diuretic combination composition and associated method” (Mylan Pharmaceuticals, Inc., priority 1983, dated 1984).

For series [1] the following is noted: administration of 100 mg; differently formulated compositions; cited from earlier work.
Series [2] deals with hypertensive individuals who had become hypokalemic.
Procedure: In an effort to determine the minimum amount of triamterene needed to reverse the hypokalemia precipitated by hydrochlorothiazide, each subject was continued on hydrochlorothiazide, 50 mg/day administered in a separate tablet, and was also given one of the following daily dosages of triamterene, administered in suspension form throughout the testing period: 0 mg, 25 mg, 50 mg, 75 mg, and 100 mg.

Take `Nc1nc(N)c2nc(-c3ccccc3)c(N)nc2n1` [triamterene, 2,4,7-triamino-6-phenylpteridine]: the “limit in absorptive capacity of the gastrointestinal tract, mean” value in series [1] is recorded as approximately 39%. For the same compound, the “reversal of hydrochlorothiazide-induced hypokalemia, response” value in series [2] (about 75 mg triamterene with 50 mg hydrochlorothiazide) is reported as “near maximal response”. In addition, the “effectiveness for reversing hydrochlorothiazide-induced hypokalemia” value in series [2] (upper ranges of the doses tested) is “particularly large in the upper ranges of the doses tested”.
